Data set [1] has as its target T1, glucocorticoid receptor of rat hepatic cytoplasm (Rattus norvegicus, UniProt P06536).
T1 construct: centrifuge at 175000 g for 1 hour, and take out the supernatant liquid as reserve; from tissue; host or cells: liver cytosol (175000 g supernatant) of adrenalectomised female SD rats
T1 sequence (P06536 1-795): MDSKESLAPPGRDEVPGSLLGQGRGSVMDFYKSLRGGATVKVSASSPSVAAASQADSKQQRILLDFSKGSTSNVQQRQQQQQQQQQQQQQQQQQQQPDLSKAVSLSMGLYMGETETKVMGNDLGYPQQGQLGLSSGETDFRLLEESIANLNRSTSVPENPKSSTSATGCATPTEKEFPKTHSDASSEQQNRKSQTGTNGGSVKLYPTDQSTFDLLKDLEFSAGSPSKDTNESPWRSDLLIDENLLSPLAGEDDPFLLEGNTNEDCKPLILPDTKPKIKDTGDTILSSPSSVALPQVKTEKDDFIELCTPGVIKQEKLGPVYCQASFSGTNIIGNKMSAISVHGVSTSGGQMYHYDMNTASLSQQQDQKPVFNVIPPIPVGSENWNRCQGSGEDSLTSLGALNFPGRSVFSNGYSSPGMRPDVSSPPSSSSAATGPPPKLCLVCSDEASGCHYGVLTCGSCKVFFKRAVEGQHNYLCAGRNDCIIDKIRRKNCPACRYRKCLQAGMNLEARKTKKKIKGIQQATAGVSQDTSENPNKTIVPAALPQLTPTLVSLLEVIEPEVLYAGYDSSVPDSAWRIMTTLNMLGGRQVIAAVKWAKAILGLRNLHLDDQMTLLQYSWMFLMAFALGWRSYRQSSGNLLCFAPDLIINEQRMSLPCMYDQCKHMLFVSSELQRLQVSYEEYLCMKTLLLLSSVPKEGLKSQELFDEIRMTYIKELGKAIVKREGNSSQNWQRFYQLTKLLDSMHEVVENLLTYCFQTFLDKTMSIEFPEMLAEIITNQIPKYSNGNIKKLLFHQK
Kind of data set: Competition inhibition of [3H]-dexamethasone binding in rat hepatic cytoplasm. As to conditions: read-out: Inhibition rate on binding of [3H]-dexamethasone. The protocol: Clean female SD rats, body weight 200-250 g, are fed with certain quantity of food and freely drink water. The temperature is controlled at about 24° C. and an illumination cycle are for 11 hours by day and 13 hours at night. All animals are observed for 1 week before experiment. Incisions are made on two sides below arch of ribs on dorsal position of rats to extirpate adrenal glands. After operation, the rats are fed with physiological saline to maintain water-electrolyte balance. On the third day after operation, animals are acutely executed. The liver is taken out immediately and placed in ice cold buffer solution; the blood should be washed off as much as possible. Take certain quantity of tissue, add buffer solution (1:4), cut the tissue with scissors, intermittently homogenize the tissue under low temperature, centrifuge at 175000 g for 1 hour, and take out the supernatant liquid as reserve. […] Then carry out the competition inhibition experiment.

In the next data set the test system is thymus gland cells. Kind of data set: Anti-glucocorticoid activity test, [3H]-TdR incorporation in rat thymus gland cells. It is filed as cell-based. As to conditions: dexamethasone 6×10^−8 mol/L used singly. Here is the method:
Clean female SD rats, body weight 200-250 g, are fed with certain quantity of food and freely drink water. The temperature is controlled at about 24° C. and an illumination cycle are for 11 hours by day and 13 hours at night. All animals are observed for 1 week before experiment. Rats are anesthetized with ethyl ether. Incisions are made on two sides below costal arch of ribs on dorsal position of rats to extirpate adrenal glands. The rats are fed with physiological saline after operation. On the seventh day, animals are acutely executed. Take out thymus gland to place in to HBSS buffer solution, wash twice, remove connective tissue, cut the tissue with scissors, lightly grind with homogenizer, filter with three layers of gauze, and centrifuge the filtrate for 5 min (500 rpm). Wash the precipitated cells twice with HBSS, re-suspend the cells in RPMI1640 culture medium for cell count and cell survival rate determination, and adjust cell concentration to 1×10^7/ml. Determination of anti-glucocorticoid activity: Add tested compound into culture medium, reaction concentration 6×10^−[…], and place in 37° C. incubator for 3 hours. Add thymus gland cells to make cell concentration to become 10^7/ml and incubate at 37° C. for 3 hours. Add 1 μCi of label substance, mix, and incubate for 1 hour. Add 100 μl of ice cold 5% trichloroacetic acid to end the reaction. Place the test tube on ice and wash twice with 2 ml of ice cold 5% trichloroacetic acid and centrifuge twice, 500 rpm×5 min, Add 0.5 ml of 1N NaOH to dissolve the precipitated cells, pipet out the liquid, dry the residue with cotton stick, place into same scintillation bottle, and determine the radioactivity by liquid scintillation counter.
Calculate the incorporation rate of [^3H]-TdR:
In which: T=[^3H]-TdR count without presence of compound, Td=count with presence of compound, and NSB=non-specific adsorption.
Inhibition rate=100%−incorporation rate

Data set [2] is described as follows: MTT toxicity on PBMC infected by HIV-1 AZT-sensitive strain 018a. As to conditions: human. Here is the method:
(§1) Collect cells with curette, infect cells with 10^−2 AZT sensitive (018a) or AZT resistant (018c) virus strain liquid, and adsorb for 2 hours, Wash off unabsorbed virus with 1640 culture medium without serum, prepare cells infected by virus to 1×10^6/ml with culture solution, and inoculate on 96-pore culture plate, 100 μl/pore. […] Set cell control group and virus infected cell control group. Incubate under 37° C. and 5% CO2. On the fourth day (96 hours), pipette out the supernatant liquid and store under −20° C. for determination of HIV-1 P24 antigen titer and calculation of drug inhibitory action. Add MTT staining to cells for determination of cytotoxicity. Determination of cytotoxicity by MTT staining: Add 10 μl of 5 mg/ml MTT stain into each pore, continue to incubate under 37° C., 5% CO2 and saturated humidity for 4 hours. […] Determine the HIV-1 P24 antigen titer according to the operation procedure provided by the HIV-1 P24 antigen reagent kit. Compare the drug-added group with virus control group. […] Calculation method of 50% toxic concentration (CC50), 50% effective concentration (EC50) and selection index (SI): […]

The subject of data set [3] is HIV-1 AZT-sensitive strain 018a P24 antigen. Briefly: Inhibition of HIV-1 018a P24 antigen in PBMC cell culture. It is filed as cell-based. As to conditions: for EC50: Human immunodeficiency virus 1, PBMC, 2 h, administration after adsorbing 2 hours. Here is the method:
(§2) Collect cells with curette, infect cells with 10^−2 AZT sensitive (018a) or AZT resistant (018c) virus strain liquid, and adsorb for 2 hours, Wash off unabsorbed virus with 1640 culture medium without serum, prepare cells infected by virus to 1×10^6/ml with culture solution, and inoculate on 96-pore culture plate, 100 μl/pore. […] Set cell control group and virus infected cell control group. Incubate under 37° C. and 5% CO2. On the fourth day (96 hours), pipette out the supernatant liquid and store under −20° C. for determination of HIV-1 P24 antigen titer and calculation of drug inhibitory action. Add MTT staining to cells for determination of cytotoxicity. Determination of cytotoxicity by MTT staining: Add 10 μl of 5 mg/ml MTT stain into each pore, continue to incubate under 37° C., 5% CO2 and saturated humidity for 4 hours. […] Determine the HIV-1 P24 antigen titer according to the operation procedure provided by the HIV-1 P24 antigen reagent kit. Compare the drug-added group with virus control group. […] Calculation method of 50% toxic concentration (CC50), 50% effective concentration (EC50) and selection index (SI):
(§3) (3) Calculation Method of Selection Index (SI) on HIV-1 P24 Antigen in Cell Culture SI=CC50/EC50

Data set [4] in a line: MTT toxicity on PBMC infected by HIV-1 AZT-resistant strain 018c. As to conditions: human. Here is the method:
as §1

Data set [5] concerns HIV-1 AZT-resistant strain 018c P24 antigen. Briefly: Inhibition of HIV-1 018c P24 antigen in PBMC cell culture. To be noted: 018c; for EC50: Human immunodeficiency virus 1, PBMC, 2 h, PBMC, administration after adsorbing 2 hours; for SI: SI=CC50/EC50. It is filed as cell-based. The protocol: as §2, §3
The mark [6] stands for this setting: 50% toxic concentration CC50, Average.
Where [7] appears, read: 50% toxic concentration CC50, Experiment 1.
Setting [8] is: 50% toxic concentration CC50, Experiment 2.

In brackets after ≈: the same amount, converted by molar mass.

Turning to `C[C@@H]1C[C@H]2[C@@H]3CCC4=CC(=O)C=C[C@]4(C)[C@@]3(F)[C@@H](O)C[C@]2(C)[C@@]1(O)C(=O)CO` [Dexamethasone, dexamethasone], in data set [1], the inhibition at 0.0008 µM amounted to 14.7 ± 7.34%, the inhibition at 0.0016 µM stood at 10.4 ± 6.11%, the inhibition at 0.004 µM turned out to be 24.8 ± 5.92% and the inhibition at 0.02 µM amounted to 39.4 ± 4.83%. In addition, in data set [1], the inhibition at 0.1 µM is 60.4 ± 5.67% and the inhibition at 0.5 µM was found to be 89.2 ± 8.56%. Further, the “Incorporation rate of [3H]-TdR” value in the data set on thymus gland cells is listed as 43.2%±3.7.

In the case of `CC#C[C@]1(O)CC[C@H]2[C@@H]3CCC4=CC(=O)CCC4=C3[C@@H](c3ccc(N(C)C)cc3)C[C@@]21C` [Mifepristone, mifepristone], the cytotoxic concentration (CC50) at 96 h in data set [2] (50% toxic concentration CC50, Average, PBMC, 018a) amounted to 83.6 µg/mL (≈ 195 µM); in data set [2] (50% toxic concentration CC50, Experiment 1, PBMC, 018a), 69.4 µg/mL (≈ 162 µM); in data set [2] (50% toxic concentration CC50, Experiment 2, PBMC, 018a) it was 97.8 µg/mL (≈ 228 µM); in data set [4] (setting [6]), 89.9 µg/mL (≈ 209 µM); in data set [4] (setting [7]), 105 µg/mL (≈ 244 µM); in data set [4] (setting [8]), 74.7 µg/mL (≈ 174 µM). For the same compound, the EC50 worked out at 12.4 µg/mL (≈ 28.8 µM) in data set [3] (Average, PBMC); 12.4 µg/mL (≈ 28.9 µM) in data set [3] (Experiment 1, PBMC); 12.4 µg/mL (≈ 28.8 µM) in data set [3] (Experiment 2, PBMC); 10.1 µg/mL (≈ 23.5 µM) in data set [5] (Average); 10.4 µg/mL (≈ 24.2 µM) in data set [5] (Experiment 1); 9.84 µg/mL (≈ 22.9 µM) in data set [5] (Experiment 2).

Turning to `Cc1cn([C@H]2C[C@H](N=[N+]=[N-])[C@@H](CO)O2)c(=O)[nH]c1=O` [AZT, zidovudine], the CC50 at 96 h in data set [2] (50% toxic concentration CC50) amounted to 58.8 µg/mL (≈ 220 µM); in data set [4] (setting [6]) it was 74.3 µg/mL (≈ 278 µM); in data set [4] (setting [7]) it was 70.7 µg/mL (≈ 265 µM); in data set [4] (setting [8]), 77.9 µg/mL (≈ 291 µM). Also, the EC50 in data set [3] (Average, PBMC) was below 0.0064 µg/mL; in data set [3] (Experiment 1, PBMC), below 0.0061 µg/mL; in data set [3] (Experiment 2, PBMC), below 0.0064 µg/mL; in data set [5] (Average), 0.054 µg/mL (≈ 0.202 µM); in data set [5] (Experiment 1), 0.047 µg/mL (≈ 0.176 µM); in data set [5] (Experiment 2), 0.061 µg/mL (≈ 0.228 µM). Moreover, the SI turned out to be 10275.78 in data set [3] (SI=CC50/EC50, Average); 9193.75 in data set [3] (SI=CC50/EC50, Experiment 1); 11357.81 in data set [3] (SI=CC50/EC50, Experiment 2); 1390.87 in data set [5] (Average); 1504.68 in data set [5] (Experiment 1); 1277.05 in data set [5] (Experiment 2).

Values taken from US20090111781A1, “Use of Cymipristone Type Compounds in Aids Treatment” (SHANGHAI THREE-ALLIANCE BIOTECHNOLOGIES CO., LTD., priority 2005, published 2009).
